Measured values as given in patent US10174037B2, “Dihydropyrazolopyrimidinone compounds as PDE2 inhibitors” (Merck Sharp & Dohme Corp., priority 2015, dated 2019).

The compounds below were run against human PDE2A1 (Homo sapiens (Human), UniProt O00408) (assay: PDE selectivity IMAP FP assay, human PDE2A1). Conditions: Human PDE2; Lab B; read-out: Human PDE2 Ki (nM) Lab B.
Format: biochemical
Procedure: Selectivity for PDE2, as compared to other PDE families, was assessed using the IMAP® technology. Human PDE10A2 enzyme was prepared from cytosolic fractions of transiently transfected HEK cells.
A Labcyte POD 810 (Labcyte, Sunnyvale, Calif.) was used to dispense 200 nL from each well of the titration plate to make eleven copies of the assay plate for each titration, one copy for each PDE enzyme. A solution of each enzyme (dilution from aliquots, sufficient to produce 20% substrate conversion) and a separate solution of FAM-labeled cAMP or FAM-labeled cGMP from Molecular Devices (Sunnyvale, Calif., product # R7506 or cGMP#R7508), at a final concentration of 50 nM were made in the assay buffer (10 mM Tris HCl, pH 7.2, 10 mM MgCl2, 0.05% NaN3 0.01% Tween-20, and 1 mM DTT). Note that the substrate for PDE2 is 50 nM FAM cAMP containing 1000 nM of cGMP. The enzyme and the substrate were then added to the assay plates in two consecutive additions of 10 μL and then shaken to mix. The reaction was allowed to proceed at room temperature for 60 minutes. A binding solution was then made from the kit components, comprised of 80% Solution A, 20% Solution B and binding reagent at a volume of 1/600 the total binding solution. The enzymatic reaction was stopped by addition of 60 μL of the binding solution to each well of the assay plate. […] The plates were incubated at room temperature for one hour, then the parallel and perpendicular fluorescence was measured using a Tecan Genios Pro plate reader (Tecan, Switzerland). […] The intrinsic PDE2 inhibitory activity of a compound which may be used in accordance with the present invention may be determined by these assays. […]
The PDE2 Ki is a measure of the ability of the test compound to inhibit the action of the PDE2 enzyme.

Chain of human PDE2A1 (O00408 other isoform, or with tags, fused parts or gaps): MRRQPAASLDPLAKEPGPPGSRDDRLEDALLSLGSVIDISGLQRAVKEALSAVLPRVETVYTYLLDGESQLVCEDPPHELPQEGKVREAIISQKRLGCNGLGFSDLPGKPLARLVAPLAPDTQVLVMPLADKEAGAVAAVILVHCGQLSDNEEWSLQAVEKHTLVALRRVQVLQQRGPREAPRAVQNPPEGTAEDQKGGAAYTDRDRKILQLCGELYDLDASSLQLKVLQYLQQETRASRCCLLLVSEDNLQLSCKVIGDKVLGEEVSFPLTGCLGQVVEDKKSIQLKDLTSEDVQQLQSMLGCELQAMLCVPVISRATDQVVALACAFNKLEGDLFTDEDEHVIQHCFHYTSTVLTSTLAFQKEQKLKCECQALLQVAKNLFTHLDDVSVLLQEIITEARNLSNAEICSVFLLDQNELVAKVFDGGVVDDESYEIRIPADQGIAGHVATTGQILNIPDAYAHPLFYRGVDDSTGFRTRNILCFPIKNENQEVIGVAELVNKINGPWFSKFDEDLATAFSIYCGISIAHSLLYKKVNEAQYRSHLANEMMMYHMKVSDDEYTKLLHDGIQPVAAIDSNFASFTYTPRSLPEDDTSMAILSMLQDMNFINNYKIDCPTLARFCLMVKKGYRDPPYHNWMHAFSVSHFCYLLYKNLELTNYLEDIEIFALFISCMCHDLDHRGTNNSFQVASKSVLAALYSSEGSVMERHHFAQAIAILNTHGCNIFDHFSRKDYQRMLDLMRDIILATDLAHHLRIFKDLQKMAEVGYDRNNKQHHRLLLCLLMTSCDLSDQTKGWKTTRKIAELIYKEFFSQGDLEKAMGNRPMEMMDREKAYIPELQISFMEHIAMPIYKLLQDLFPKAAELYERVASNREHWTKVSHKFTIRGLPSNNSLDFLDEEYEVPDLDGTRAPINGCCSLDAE

**Q.** How did the Ki turn out when `CCC(c1ccc(C(C)(F)F)cc1)n1nc(CF)c2c(=O)[nH]c(N(C)C)nc21` (single isomer, unassigned) [Example 204, (R)- or (S)-1-(1-(4-(1,1-Difluoroethyl)phenyl)propyl)-6-(dimethylamino)-3-(fluoromethyl)-1H-pyrazolo[3,4-d]pyrimidin-4(5H)-one] was run?
**A.** 1.4 nM

**Q.** How did the Ki turn out when `CC(c1ccc(C(C)(F)F)cc1F)n1nc(CF)c2c(=O)[nH]c(N(C)C)nc21` (single isomer, unassigned) [Example 208, (R)- or (S)-1-(1-(4-(1,1-Difluoroethyl)-2-fluorophenyl)ethyl)-6-(dimethylamino)-3-(fluoromethyl)-1H-pyrazolo[3,4-d]pyrimidin-4(5H)-one] was run?
**A.** 20 nM

**Q.** `CC(c1ccc(C(C)(F)F)c(F)c1)n1nc(CF)c2c(=O)[nH]c(N(C)C)nc21` (single isomer, unassigned) [Example 210, (R)- or (S)-1-(1-(4-(1,1-Difluoroethyl)-3-fluorophenyl)ethyl)-6-(dimethylamino)-3-(fluoromethyl)-1H-pyrazolo[3,4-d]pyrimidin-4(5H)-one] was tested. Which Ki did it give?
**A.** 3.3 nM

**Q.** How did the Ki turn out when `CC(c1ccc(C(C)(F)F)c(F)c1)n1nc(CF)c2c(=O)[nH]c(N(C)C)nc21` (single isomer, unassigned) [Example 211, (S)- or (R)-1-(1-(4-(1,1-Difluoroethyl)-3-fluorophenyl)ethyl)-6-(dimethylamino)-3-(fluoromethyl)-1H-pyrazolo[3,4-d]pyrimidin-4(5H)-one] was run?
**A.** 0.048 nM

**Q.** With `CCC(c1ccc(C(C)(F)F)cc1F)n1nc(CF)c2c(=O)[nH]c(N(C)C)nc21` (single isomer, unassigned) [Example 215, (S)- or (R)-1-(1-(4-(1,1-Difluoroethyl)-2-fluorophenyl)propyl)-6-(dimethylamino)-3-(fluoromethyl)-1H-pyrazolo[3,4-d]pyrimidin-4(5H)-one] as the compound, how does the Ki read?
**A.** 0.98 nM

**Q.** With `CCC(c1ccc(C(F)(F)F)c(F)c1)n1nc(CF)c2c(=O)[nH]c(N(C)C)nc21` (single isomer, unassigned) [Example 223, (S)- or (R)-6-(Dimethylamino)-1-(1-(3-fluoro-4-(trifluoromethyl)phenyl)propyl)-3-(fluoromethyl)-1H-pyrazolo[3,4-d]pyrimidin-4(5H)-one] as the compound, how does the Ki read?
**A.** 1.8 nM

**Q.** How did the Ki turn out when `CC(C)(C)C(c1ccc(C(F)(F)F)c(F)c1)n1nc(CC(F)(F)F)c2c(=O)[nH]c(O)nc21` (single isomer, unassigned) [Example 246, (R)- or (S)-1-(1-(3-Fluoro-4-(trifluoromethyl)phenyl)-2,2-dimethylpropyl)-6-hydroxy-3-(2,2,2-trifluoroethyl)-1H-pyrazolo[3,4-d]pyrimidin-4(5H)-one] was run?
**A.** 408 nM

**Q.** With `CC(C)(C)C(c1ccc(C(F)(F)F)c(F)c1)n1nc(CC(F)(F)F)c2c(=O)[nH]c(O)nc21` (single isomer, unassigned) [Example 247, (S)- or (R)-1-(1-(3-Fluoro-4-(trifluoromethyl)phenyl)-2,2-dimethylpropyl)-6-hydroxy-3-(2,2,2-trifluoroethyl)-1H-pyrazolo[3,4-d]pyrimidin-4(5H)-one] as the compound, how does the Ki read?
**A.** > 2960 nM

**Q.** How did the Ki turn out when `CC1(C(c2ccc(C(F)(F)F)c(F)c2)n2nc(CC(F)(F)F)c3c(=O)[nH]c(O)nc32)CC1` (single isomer, unassigned) [Example 248, (R)- or (S)-1-((3-Fluoro-4-(trifluoromethyl)phenyl)(1-methylcyclopropyl)methyl)-6-hydroxy-3-(2,2,2-trifluoroethyl)-1H-pyrazolo[3,4-d]pyrimidin-4(5H)-one] was run?
**A.** 47 nM

**Q.** With `CC1(C(c2ccc(C(F)(F)F)c(F)c2)n2nc(CC(F)(F)F)c3c(=O)[nH]c(O)nc32)CC1` (single isomer, unassigned) [Example 249, (S)- or (R)-1-((3-Fluoro-4-(trifluoromethyl)phenyl)(1-methylcyclopropyl)methyl)-6-hydroxy-3-(2,2,2-trifluoroethyl)-1H-pyrazolo[3,4-d]pyrimidin-4(5H)-one] as the compound, how does the Ki read?
**A.** 841 nM

**Q.** For `O=c1[nH]c(O)nc2c1c(C(F)F)nn2C(CC(F)(F)F)c1ccc(C(F)(F)F)cc1` (single isomer, unassigned) [Example 271], which Ki is on record?
**A.** 911 nM

**Q.** Which Ki does the source give for `O=c1[nH]c(O)nc2c1c(C(F)F)nn2C(CC(F)(F)F)c1ccc(C(F)(F)F)cc1` (single isomer, unassigned) [Example 272] here?
**A.** 43 nM

**Q.** Which Ki does the source give for `CC(c1ccc(C2CC2)cc1)n1nc(C(F)F)c2c(=O)[nH]c(O)nc21` (single isomer, unassigned) [Example 275, (R)- or (S)-1-(1-(4-Cyclopropylphenyl)ethyl)-3-(difluoromethyl)-6-hydroxy-1H-pyrazolo[3,4-d]pyrimidin-4(5H)-one] here?
**A.** 416 nM

**Q.** For `CC(c1ccc(C2CC2)cc1)n1nc(C(F)F)c2c(=O)[nH]c(O)nc21` (single isomer, unassigned) [Example 276, (S)- or (R)-1-(1-(4-Cyclopropylphenyl)ethyl)-3-(difluoromethyl)-6-hydroxy-1H-pyrazolo[3,4-d]pyrimidin-4(5H)-one], which Ki is on record?
**A.** 3.6 nM

**Q.** Which Ki does the source give for `CC(c1ccc(C(F)(F)F)cc1)n1nc(CC(F)F)c2c(=O)[nH]c(O)nc21` (single isomer, unassigned) [Example 291] here?
**A.** 2.5 nM

**Q.** `CC(c1ccc(C(F)(F)F)cc1)n1nc(CC(F)F)c2c(=O)[nH]c(O)nc21` (single isomer, unassigned) [Example 292] was tested. Which Ki did it give?
**A.** 137 nM

**Q.** For `CC(c1ccc(C(F)(F)F)cc1F)n1nc(C(F)(F)F)c2c(=O)[nH]c(O)nc21` (single isomer, unassigned) [Example 305], which Ki is on record?
**A.** 1.9 nM

**Q.** With `CC(c1ccc(C(F)(F)F)cc1F)n1nc(C(F)(F)F)c2c(=O)[nH]c(O)nc21` (single isomer, unassigned) [Example 306] as the compound, how does the Ki read?
**A.** 330 nM

**Q.** Which Ki does the source give for `CC(c1ccc(OC(F)(F)F)cc1F)n1nc(C(F)(F)F)c2c(=O)[nH]c(O)nc21` (single isomer, unassigned) [Example 307, (R)- or (S)-1-{1-[2-Fluoro-4-(trifluoro-methoxy)phenyl]ethyl}-6-hydroxy-3-(trifluoromethyl)-1,5-dihydro-4H-pyrazolo-[3,4-d]pyrimidin-4-one] here?
**A.** 10 nM

**Q.** `CC(c1ccc(OC(F)(F)F)cc1F)n1nc(C(F)(F)F)c2c(=O)[nH]c(O)nc21` (single isomer, unassigned) [Example 308, (S)- or (R)-1-{1-[2-Fluoro-4-(trifluoro-methoxy)phenyl]ethyl}-6-hydroxy-3-(trifluoromethyl)-1,5-dihydro-4H-pyrazolo[3,4-d]pyrimidin-4-one] was tested. Which Ki did it give?
**A.** 213 nM

**Q.** `CC(c1ccc(OC(F)(F)F)c(F)c1)n1nc(C(F)(F)F)c2c(=O)[nH]c(O)nc21` (single isomer, unassigned) [Example 309, (R)- or (S)-1-{1-[3-Fluoro-4-(trifluoromethoxy)phenyl]ethyl}-6-hydroxy-3-(trifluoromethyl)-1,5-dihydro-4H-pyrazolo[3,4-d]pyrimidin-4-one] was tested. Which Ki did it give?
**A.** 2.7 nM

**Q.** `CC(c1ccc(OC(F)(F)F)c(F)c1)n1nc(C(F)(F)F)c2c(=O)[nH]c(O)nc21` (single isomer, unassigned) [Example 310, (S)- or (R)-1-{1-[3-Fluoro-4-(trifluoromethoxy)phenyl]ethyl}-6-hydroxy-3-(trifluoromethyl)-1,5-dihydro-4H-pyrazolo[3,4-d]pyrimidin-4-one] was tested. Which Ki did it give?
**A.** 36 nM

**Q.** `CC(c1ccc(S(F)(F)(F)(F)F)cc1)n1nc(C(F)(F)F)c2c(=O)[nH]c(O)nc21` (single isomer, unassigned) [Example 311, (R)- or (S)-6-Hydroxy-1-{1-[4-(pentafluoro-lambda~6-sulfanyl)phenyl]ethyl}-3-(trifluoromethyl)-1,5-dihydro-4H-pyrazolo[3,4-d]pyrimidin-4-one] was tested. Which Ki did it give?
**A.** 4.9 nM

**Q.** With `CC(c1ccc(S(F)(F)(F)(F)F)cc1)n1nc(C(F)(F)F)c2c(=O)[nH]c(O)nc21` (single isomer, unassigned) [Example 312, (S)- or (R)-6-Hydroxy-1-{1-[4-(pentafluoro-lambda~6-sulfanyl)phenyl]ethyl}-3-(trifluoromethyl)-1,5-dihydro-4H-pyrazolo[3,4-d]pyrimidin-4-one] as the compound, how does the Ki read?
**A.** 265 nM

**Q.** For `CC(c1ccc(C(F)(F)F)c(F)c1)n1nc(C(F)(F)F)c2c(=O)[nH]c(O)nc21` (single isomer, unassigned) [Example 313, (R)- or (S)-1-{1-[3-Fluoro-4-(trifluoromethyl)phenyl]ethyl}-6-hydroxy-3-(trifluoromethyl)-1,5-dihydro-4H-pyrazolo[3,4-d]pyrimidin-4-one], which Ki is on record?
**A.** 2.2 nM

**Q.** How did the Ki turn out when `CC(c1ccc(C(F)(F)F)c(F)c1)n1nc(C(F)(F)F)c2c(=O)[nH]c(O)nc21` (single isomer, unassigned) [Example 314, (S)- or (R)-1-{1-[3-Fluoro-4-(trifluoromethyl)phenyl]ethyl}-6-hydroxy-3-(trifluoromethyl)-1,5-dihydro-4H-pyrazolo[3,4-d]pyrimidin-4-one] was run?
**A.** 106 nM

**Q.** `CC(c1ccc(OC(F)F)cc1)n1nc(C(F)(F)F)c2c(=O)[nH]c(O)nc21` (single isomer, unassigned) [Example 315, (R)- or (S)-1-{1-[4-(Difluoromethoxy)phenyl]ethyl}-6-hydroxy-3-(trifluoromethyl)-1,5-dihydro-4H-pyrazolo[3,4-d]pyrimidin-4-one] was tested. Which Ki did it give?
**A.** 629 nM
